The values that follow come from patent publication US20240034723A1, “PIPERIDINYL SMALL MOLECULE DEGRADERS OF HELIOS AND METHODS OF USE” (DANA-FARBER CANCER INSTITUTE, INC., priority 2020, published 2024).

T1 sequence (Q9UKS7 whole entry): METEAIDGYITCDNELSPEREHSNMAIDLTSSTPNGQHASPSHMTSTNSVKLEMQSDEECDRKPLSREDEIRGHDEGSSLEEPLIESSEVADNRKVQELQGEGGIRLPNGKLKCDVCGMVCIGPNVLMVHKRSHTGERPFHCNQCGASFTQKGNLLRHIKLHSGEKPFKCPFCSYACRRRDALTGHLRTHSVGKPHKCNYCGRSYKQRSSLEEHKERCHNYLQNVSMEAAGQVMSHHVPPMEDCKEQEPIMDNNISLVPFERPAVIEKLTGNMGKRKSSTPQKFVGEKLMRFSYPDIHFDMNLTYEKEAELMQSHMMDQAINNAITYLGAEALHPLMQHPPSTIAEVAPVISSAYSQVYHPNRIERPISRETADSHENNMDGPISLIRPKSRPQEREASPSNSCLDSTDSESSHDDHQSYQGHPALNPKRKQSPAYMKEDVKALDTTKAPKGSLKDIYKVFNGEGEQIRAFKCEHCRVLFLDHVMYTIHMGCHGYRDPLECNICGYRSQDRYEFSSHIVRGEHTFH
T1 sequence (Q96SW2 whole entry): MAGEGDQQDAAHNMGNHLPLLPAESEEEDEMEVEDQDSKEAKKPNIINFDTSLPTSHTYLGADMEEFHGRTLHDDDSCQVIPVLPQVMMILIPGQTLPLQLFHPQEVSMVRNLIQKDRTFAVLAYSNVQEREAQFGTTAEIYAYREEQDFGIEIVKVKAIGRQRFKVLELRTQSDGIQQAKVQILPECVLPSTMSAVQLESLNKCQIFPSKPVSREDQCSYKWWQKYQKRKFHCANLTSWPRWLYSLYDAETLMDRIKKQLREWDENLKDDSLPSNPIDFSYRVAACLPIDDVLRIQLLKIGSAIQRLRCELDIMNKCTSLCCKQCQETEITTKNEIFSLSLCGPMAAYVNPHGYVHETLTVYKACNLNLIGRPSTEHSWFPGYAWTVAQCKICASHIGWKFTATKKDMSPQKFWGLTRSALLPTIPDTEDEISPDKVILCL
T1 sequence (Q16531 whole entry partner): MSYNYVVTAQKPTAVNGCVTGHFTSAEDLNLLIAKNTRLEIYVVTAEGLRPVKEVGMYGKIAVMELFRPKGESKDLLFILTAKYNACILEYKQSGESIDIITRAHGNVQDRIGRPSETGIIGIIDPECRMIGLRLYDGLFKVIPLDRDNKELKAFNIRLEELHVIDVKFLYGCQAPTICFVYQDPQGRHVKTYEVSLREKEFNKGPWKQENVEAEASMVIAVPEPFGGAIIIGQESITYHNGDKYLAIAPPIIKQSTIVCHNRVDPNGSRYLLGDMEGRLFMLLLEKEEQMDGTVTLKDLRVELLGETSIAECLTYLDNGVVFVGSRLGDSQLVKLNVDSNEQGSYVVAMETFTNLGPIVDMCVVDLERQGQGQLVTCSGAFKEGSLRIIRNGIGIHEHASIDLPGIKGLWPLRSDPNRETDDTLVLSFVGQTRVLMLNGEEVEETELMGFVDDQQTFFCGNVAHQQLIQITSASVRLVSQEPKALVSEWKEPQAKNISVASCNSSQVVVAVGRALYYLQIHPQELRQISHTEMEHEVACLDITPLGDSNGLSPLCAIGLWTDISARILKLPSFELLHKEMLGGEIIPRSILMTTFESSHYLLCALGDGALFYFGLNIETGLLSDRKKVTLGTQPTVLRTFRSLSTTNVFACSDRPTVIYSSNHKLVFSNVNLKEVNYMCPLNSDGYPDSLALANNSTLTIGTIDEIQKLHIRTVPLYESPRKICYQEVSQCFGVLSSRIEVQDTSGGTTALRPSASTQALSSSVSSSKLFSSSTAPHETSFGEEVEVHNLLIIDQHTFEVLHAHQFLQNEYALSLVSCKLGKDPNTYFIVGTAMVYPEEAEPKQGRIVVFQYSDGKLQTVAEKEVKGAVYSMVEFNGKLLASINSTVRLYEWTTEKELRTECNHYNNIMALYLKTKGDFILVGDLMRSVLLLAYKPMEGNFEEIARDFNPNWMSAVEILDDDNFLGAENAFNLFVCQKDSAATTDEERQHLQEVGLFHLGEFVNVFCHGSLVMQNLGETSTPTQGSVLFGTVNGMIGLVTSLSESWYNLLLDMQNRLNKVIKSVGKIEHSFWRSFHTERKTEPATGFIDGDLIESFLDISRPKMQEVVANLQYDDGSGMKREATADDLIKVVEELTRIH

This test concerns the target T1, IKZF2 (Helios) (Homo sapiens, UniProt Q96SW2+Q9UKS7).
T1 construct: CRISPR/Cas-mediated insertion of the HiBiT peptide tag (Promega™) to the N-terminus of the IKZF2 gene locus; endogenous in cells; host or cells: MOLT4 cells, CRISPR/Cas knock-in of HiBiT at the endogenous IKZF2 locus
The experiment in a line: MOLT4 IKZF2 HiBit assay protocol (Example 64). Type of test: cell-based. The note with it: MOLT4 IKZF2 HiBit cells, 10-point 30 μM to 1 nM; table title: after 6 hours of treatment (method: incubated 24 hours). As for the experimental part: This protocol uses MOLT4 cells that were engineered using CRISPR/Cas9-mediated genomic insertion of HiBit, tagged to the N terminus of the IKZF2 coding sequence. Day 1. Created a 10-point dose response starting from 30 μM down to 1 nM using a Tecan D300e. Next added 8,000 cells/well of the MOLT4 IKZF2 HiBit cells to the compound plate. […] Day 2. Added Nano-Glo® HiBit Lytic Buffer/Nano-Glo® HiBit Lytic substrate/LgBit Protein mix to each well and incubated for 15 minutes. Finally, read luminescence signal using a BMG Labtech PHERAstar® FSX. Data was normalized to DMSO and graphed using GraphPad Prism to determine the concentration points at which 50% of HiBiT-Helios degradation was achieved by each compound. The extent of degradation (range of luminescence) from the highest to lowest concentration points was calculated to determine Dmax.
In the case of `O=C1CCC(N2Cc3cc(C4CCN(Cc5ccc6ncn(-c7cccc(C(F)(F)F)n7)c(=O)c6c5)CC4)ccc3C2=O)C(=O)N1` (stereo not drawn) [Compound 64, 3-(1-oxo-5-(1-((4-oxo-3-(6-(trifluoromethyl)pyridin-2-yl)-3,4-dihydroquinazolin-6-yl)methyl)piperidin-4-yl)isoindolin-2-yl)piperidine-2,6-dione], the DC50 fell in the range of 5 to 25 nM.
Still for that read-out and setting: to `O=C1CCC(N2Cc3cc(C4CCN(Cc5cn6ccc(-c7ccccc7)cc6n5)CC4)ccc3C2=O)C(=O)N1` (stereo not drawn) [Compound 98, 3-(1-oxo-5-(1-((7-phenylimidazo[1,2-a]pyridin-2-yl)methyl)piperidin-4-yl)isoindolin-2-yl)piperidine-2,6-dione] belongs 25 to 100 nM; to `Cc1ncccc1-n1cnc2ccc(CN3CCC(c4ccc5c(c4)CN(C4CCC(=O)NC4=O)C5=O)CC3)cc2c1=O` (stereo not drawn) [Compound 68, 3-(5-(1-((3-(2-methylpyridin-3-yl)-4-oxo-3,4-dihydroquinazolin-6-yl)methyl)piperidin-4-yl)-1-oxoisoindolin-2-yl)piperidine-2,6-dione], under 5 nM.
With `O=C1CCC(N2Cc3cc(C4CCN(Cc5cn6ccc(-c7cccnc7)cc6n5)CC4)ccc3C2=O)C(=O)N1` (stereo not drawn) [Compound 99, 3-(1-oxo-5-(1-((7-(pyridin-3-yl)imidazo[1,2-a]pyridin-2-yl)methyl)piperidin-4-yl)isoindolin-2-yl)piperidine-2,6-dione], the DC50 is 25 to 100 nM.
Molecule `O=C1CCC(N2Cc3cc(C4CCN(Cc5ccc6nc(-c7ccccc7)nn6c5)CC4)ccc3C2=O)C(=O)N1` (stereo not drawn) [Compound 55, 3-(1-oxo-5-(1-((2-phenyl-[1,2,4]triazolo[1,5-a]pyridin-6-yl)methyl)piperidin-4-yl)isoindolin-2-yl)piperidine-2,6-dione] had a DC50 of 25 to 100 nM.
Same read-out and setting: then `O=C1CCC(N2Cc3cc(C4CCN(Cc5ccc6ncn(-c7cccc(F)c7)c(=O)c6c5)CC4)ccc3C2=O)C(=O)N1` (stereo not drawn) [Compound 28, 3-(5-(1-((3-(3-fluorophenyl)-4-oxo-3,4-dihydroquinazolin-6-yl)methyl)piperidin-4-yl)-1-oxoisoindolin-2-yl)piperidine-2,6-dione], with 5 to 25 nM.
`Cc1nc2ccc(CN3CCC(c4ccc5c(c4)CN(C4CCC(=O)NC4=O)C5=O)CC3)cc2c(=O)n1-c1ccccc1` (stereo not drawn) [Compound 83, 3-(5-(1-((2-methyl-4-oxo-3-phenyl-3,4-dihydroquinazolin-6-yl)methyl)piperidin-4-yl)-1-oxoisoindolin-2-yl)piperidine-2,6-dione] yielded a DC50 of under 5 nM.
Still for that read-out and setting: then `O=C1CCC(N2Cc3cc(C4CCN(Cc5ccc6nc(-c7ccccc7)cn6c5)CC4)ccc3C2=O)C(=O)N1` (stereo not drawn) [Compound 54, 3-(1-oxo-5-(1-((2-phenylimidazo[1,2-a]pyridin-6-yl)methyl)piperidin-4-yl)isoindolin-2-yl)piperidine-2,6-dione], with under 5 nM.
Still for that read-out and setting: then `O=C1CCC(N2Cc3cc(C4CCN(Cc5ccc6ncn(-c7cncc(F)c7)c(=O)c6c5)CC4)ccc3C2=O)C(=O)N1` (stereo not drawn) [Compound 75, 3-(5-(1-((3-(5-fluoropyridin-3-yl)-4-oxo-3,4-dihydroquinazolin-6-yl)methyl)piperidin-4-yl)-1-oxoisoindolin-2-yl)piperidine-2,6-dione], with 25 to 100 nM.
On to `CC(C)c1cccc(-n2cnc3ccc(CN4CCC(c5ccc6c(c5)CN(C5CCC(=O)NC5=O)C6=O)CC4)cc3c2=O)n1` (stereo not drawn) [Compound 63, 3-(5-(1-((3-(6-isopropylpyridin-2-yl)-4-oxo-3,4-dihydroquinazolin-6-yl)methyl)piperidin-4-yl)-1-oxoisoindolin-2-yl)piperidine-2,6-dione], for which the DC50 was 5 to 25 nM.
The same measure, in the same setting: then `N#Cc1cccc(-n2cnc3ccc(CN4CCC(c5ccc6c(c5)CN(C5CCC(=O)NC5=O)C6=O)CC4)cc3c2=O)c1` (stereo not drawn) [Compound 61, 3-(6-((4-(2-(2,6-dioxopiperidin-3-yl)-1-oxoisoindolin-5-yl)piperidin-1-yl)methyl)-4-oxoquinazolin-3(4H)-yl)benzonitrile], with 5 to 25 nM.
On the same count and under the same terms, then `O=C1CCC(N2Cc3cc(C4CCN(Cc5ccc6ncn(-c7cccc(C(F)(F)F)c7)c(=O)c6c5)CC4)ccc3C2=O)C(=O)N1` (stereo not drawn) [Compound 60, 3-(1-oxo-5-(1-((4-oxo-3-(3-(trifluoromethyl)phenyl)-3,4-dihydroquinazolin-6-yl)methyl)piperidin-4-yl)isoindolin-2-yl)piperidine-2,6-dione], with 5 to 25 nM; and `O=C1CCC(N2Cc3cc(C4CCN(Cc5ccc6ncn(-c7cccnc7)c(=O)c6c5)CC4)ccc3C2=O)C(=O)N1` (stereo not drawn) [Compound 67, 3-(1-oxo-5-(1-((4-oxo-3-(pyridin-3-yl)-3,4-dihydroquinazolin-6-yl)methyl)piperidin-4-yl)isoindolin-2-yl)piperidine-2,6-dione], with 5 to 25 nM.
`O=C1CCC(N2Cc3cc(C4CCN(Cc5cn6cc(-c7cccnc7)ccc6n5)CC4)ccc3C2=O)C(=O)N1` (stereo not drawn) [Compound 97, 3-(1-oxo-5-(1-((6-(pyridin-3-yl)imidazo[1,2-a]pyridin-2-yl)methyl)piperidin-4-yl)isoindolin-2-yl)piperidine-2,6-dione] displayed a DC50 of 25 to 100 nM.
On to `Cc1cccc(-n2cnc3ccc(CN4CCC(c5ccc6c(c5)CN(C5CCC(=O)NC5=O)C6=O)CC4)cc3c2=O)n1` (stereo not drawn) [Compound 62, 3-(5-(1-((3-(6-methylpyridin-2-yl)-4-oxo-3,4-dihydroquinazolin-6-yl)methyl)piperidin-4-yl)-1-oxoisoindolin-2-yl)piperidine-2,6-dione], for which the DC50 lay in the range of 5 to 25 nM.
On the same count and under the same terms, then `COc1cccc(-n2cnc3ccc(CN4CCC(c5ccc6c(c5)CN(C5CCC(=O)NC5=O)C6=O)CC4)cc3c2=O)n1` (stereo not drawn) [Compound 65, 3-(5-(1-((3-(6-methoxypyridin-2-yl)-4-oxo-3,4-dihydroquinazolin-6-yl)methyl)piperidin-4-yl)-1-oxoisoindolin-2-yl)piperidine-2,6-dione], with 5 to 25 nM.
On the same count and under the same terms, to `Cn1cc(-n2cnc3ccc(CN4CCC(c5ccc6c(c5)CN(C5CCC(=O)NC5=O)C6=O)CC4)cc3c2=O)cn1` (stereo not drawn) [Compound 82, 3-(5-(1-((3-(1-methyl-1H-pyrazol-4-yl)-4-oxo-3,4-dihydroquinazolin-6-yl)methyl)piperidin-4-yl)-1-oxoisoindolin-2-yl)piperidine-2,6-dione] belongs 5 to 25 nM.
The same measure, in the same setting: to `O=C1CCC(N2Cc3cc(C4CCN(Cc5cn6cc(-c7ccccc7)ccc6n5)CC4)ccc3C2=O)C(=O)N1` (stereo not drawn) [Compound 96, 3-(1-oxo-5-(1-((6-phenylimidazo[1,2-a]pyridin-2-yl)methyl)piperidin-4-yl)isoindolin-2-yl)piperidine-2,6-dione] belongs 25 to 100 nM; to `O=C1CCC(N2Cc3c(ccc(C4CCN(Cc5ccc6ncn(-c7cccnc7)c(=O)c6c5)CC4)c3F)C2=O)C(=O)N1` (stereo not drawn) [Compound 89, 3-(4-fluoro-1-oxo-5-(1-((4-oxo-3-(pyridin-3-yl)-3,4-dihydroquinazolin-6-yl)methyl)piperidin-4-yl)isoindolin-2-yl)piperidine-2,6-dione], 5 to 25 nM.
In turn, `O=C1CCC(N2Cc3cc(C4CCN(Cc5cc6c(=O)n(-c7ccccn7)cnc6cc5F)CC4)ccc3C2=O)C(=O)N1` (stereo not drawn) [Compound 87, 3-(5-(1-((7-fluoro-4-oxo-3-(pyridin-2-yl)-3,4-dihydroquinazolin-6-yl)methyl)piperidin-4-yl)-1-oxoisoindolin-2-yl)piperidine-2,6-dione] returned a DC50 of under 5 nM.
With `Cc1ccc(-n2cnc3ccc(CN4CCC(c5ccc6c(c5)CN(C5CCC(=O)NC5=O)C6=O)CC4)cc3c2=O)cn1` (stereo not drawn) [Compound 69, 3-(5-(1-((3-(6-methylpyridin-3-yl)-4-oxo-3,4-dihydroquinazolin-6-yl)methyl)piperidin-4-yl)-1-oxoisoindolin-2-yl)piperidine-2,6-dione], the “IKZF2 DC50 (M)” value is listed as “+ +”.
In turn, `O=C1CCC(N2Cc3c(ccc(C4CCN(Cc5ccc6ncn(-c7ccccn7)c(=O)c6c5)CC4)c3F)C2=O)C(=O)N1` (stereo not drawn) [Compound 85, 3-(4-fluoro-1-oxo-5-(1-((4-oxo-3-(pyridin-2-yl)-3,4-dihydroquinazolin-6-yl)methyl)piperidin-4-yl)isoindolin-2-yl)piperidine-2,6-dione] had a DC50 of 25 to 100 nM.
The molecule `Cc1nc2ccc(CN3CCC(c4ccc5c(c4)CN(C4CCC(=O)NC4=O)C5=O)CC3)cc2c(=O)n1-c1ccccn1` (stereo not drawn) [Compound 84, 3-(5-(1-((2-methyl-4-oxo-3-(pyridin-2-yl)-3,4-dihydroquinazolin-6-yl)methyl)piperidin-4-yl)-1-oxoisoindolin-2-yl)piperidine-2,6-dione] displayed a DC50 of under 5 nM.
Same read-out and setting: then `O=C1CCC(N2Cc3cc(C4CCN(Cc5ccc6cc(-c7ccccn7)nn6c5)CC4)ccc3C2=O)C(=O)N1` (stereo not drawn) [Compound 92, 3-(1-oxo-5-(1-((2-(pyridin-2-yl)pyrazolo[1,5-a]pyridin-6-yl)methyl)piperidin-4-yl)isoindolin-2-yl)piperidine-2,6-dione], with 5 to 25 nM.
